Measurements taken from PMC6385875 (Inorganica chimica acta, 2018).

Assay: In vitro integrity of tracers in buffer at physiological pH by HPLC
Type: physicochemical
Details: incubated at physiological pH for up to 6 h

Substance: ^99mTc(CO)3(PMIDA) [^99mTc-1]
- in vitro stability (decomposition by HPLC): No measurable decomposition
